Patent US4923862A, “Topical preparation containing ofloxacin” (priority 1986, dated 1990)
Read-outs that look alike come from different tables or passages of the source.

Legend:
[1] = Stability of S-compound in aqueous solution; type: physicochemical; conditions: 0.5% (wt./vol.) aqueous solution, pH 3 to 10, 2 weeks
[2] = Antimicrobial activity of Ofloxacin and S-compound (general statement); conditions: compared with Ofloxacin
[3] = U.S. Pat. No. 4,382,892; Antimicrobial Agent & Chemotherapy, Vol. 29, 163-164 (1986); cited from earlier work
[4] = system: mice; assay: Acute toxicity in mice; conditions: p.o.

Structure (SMILES)	decomposition (residual amount of S-compound) [1]	antimicrobial activities [2]	antimicrobial activities [3]	LD50 (acute toxicity) [4]
C[C@H]1COc2c(N3CCN(C)CC3)c(F)cc3c(=O)c(C(=O)O)cn1c23 [S-compound, S-(-)-9-fluoro-3-methyl-10-(4-methyl-1-piperazinyl)-7-oxo-2,3-dihydro-7H-pyrido[1,2,3de][1,4]benzoxazine-6-carboxylic acid]	no decomposition was observed at all	high antimicrobial activities	potential antimicrobial activities	
CC1COc2c(N3CCN(C)CC3)c(F)cc3c(=O)c(C(=O)O)cn1c23 (racemic) [Ofloxacin, (±)-9-fluoro-3-methyl-10-(4-methyl-1-piperazinyl)-7-oxo-2,3-dihydro-7H-pyrido[1,2,3de][1,4]benzoxazine-6-carboxylic acid]			excellent antimicrobial agent	5450 mg/kg
